Where a chain is given by its changes, count along the chain named. In names and notes the source's numbering stands. Entries after “also recorded” stand apart in the source; their conditions may differ. Values belong to the molecule of their own block, whether it stands above or below them.
Tests used:
isolated mitochondria = test: AIF binding to isolated mitochondria
Method: One commonly accepted estimate is that approximately 20%-30% of AIF resides on the cytosolic side of the outer membrane of mitochondria, where it is poised to be rapidly released by PAR following PARP-1 activation. Applicants thus wanted to perform tests of AIF binding to mitochondria determine how readily purified WT-AIF and Pbm-AIF bind to mitochondria in a time- and concentration-dependent manner. Specifically, recombinant WT-AIF (2.5 ng/μl) and Pbm-AIF (2.5 ng/μl) were incubated with isolated mitochondria (200 μg/ml) for 1 minute, 5 minutes, 10 minutes, 15 minutes, 20 minutes or 30 minutes. […] The results of this portion of the experiment is provided by the graph of FIG. 15B.
To investigate the mechanism underlying mitochondrial AIF release following PARP-1 activation, Applicants incubated isolated mitochondria with purified non-tagged forms of AIF in the presence or absence of PAR and followed this by centrifugation to remove the mitochondria. Detection of AIF remaining in the supernatant was thereafter performed through immunoblot analysis.
The supernatant collected in the experiments of Example 16 were also analyzed for the presence of Tom20 and cyclochrome c.

PAR [1] = test: nitrocellulose saturation binding experiments; conditions: for Bmax / Kd: PAR binding, saturation binding; for Kd: ligand binding program of Sigma plot, read-out: Kd
Source text: (§1) Applicants thereafter repeated the experiments using both wild type and mutant AIFm peptides spanning only amino acids 567-592 instead of full length AIFm and obtained results consistent with those using full-length AIF. […] The double amino acid mutant Dm (corresponding to only amino acids 567-592 of AIF-Dm so as to consist of SEQ. ID NO. 16) bound PAR. […] Thus, it is preferred in embodiments of the invention when conducting genetic manipulations to convert at least three target basic amino acids in the PBM to hydrophobic amino acids.
The PAR polymer binding properties of the mutant Pbm-AIF was then measured using full-length recombinant His-WT-AIF and His tagged Pbm-AIF (“His-Pbm-AIF”) via a series of nitrocellulose saturation binding experiments. Similar experiments were also conducted for the shorter peptides Dm and Tm in comparison to WT. FIG. 10B through FIG. 10D comprise charts reporting data from these various experiments. With regard to the shorter peptides, Applicants determined that the binding affinity constant (“Kd”) and maximum binding capacity (“Bmax”) of these AIF mimetic peptides and the results are reported in the chart of FIG. 10B. […] FIG. 10D comprises a Scatchard plot (95% confidence interval) of the results.

PAR [2] = test: dot-blot assay of AIF peptides with 32P-labeled PAR; type: binding; conditions: for binding to 32P-labeled automodified PARP-1 or 32P-labeled purified PAR: peptides spanning only amino acids 567-592; for binding to PAR: peptides, 100 nM purified 32P-labeled PAR
Method: To determine whether these putative binding sites are in fact responsible for AIF binding to PAR, Applicants performed a dot-blot assay with peptides corresponding to these motifs in the presence of 100 nM purified ^32P-labeled PAR. FIG. 5 comprises black and white photos of representative dot-blot assay for full length WT-AIF, three AIF peptides formed from identified portions of AIFm, histone H3, and BSA in presence of 100 nM purified ^32P-labeled PAR.
as §1

PAR [3] = test: PAR overlay assay of full length AIF and mutants; type: binding; conditions: for binding to 32P-labeled automodified PARP-1 or purified 32P-labeled PAR: His-tagged proteins, 100 nM PAR; for binding to 32P-labeled automodified PARP-1 or purified 32P-labeled PAR / effect of hundred fold excess of salmon sperm DNA on PAR binding: overlay assay; for effect of hundred fold excess of salmon sperm DNA on PAR binding: 32P-labeled PAR; for effect of salmon sperm DNA on PAR binding: salmon sperm DNA at 760 μM
Method: The following experiment was performed to confirm whether AIF in fact binds to PAR. Applicants performed 3 trials of an overlay assay on recombinant AIF with affinity-purified biotin-labeled PAR. Histone H3, which binds to PAR with high affinity, was included as a positive control and bovine serum albumin (“BSA”) was included as a negative control, as described by P. Chang et al. (Nat Cell Bio, 2005). FIG. 1B depicts three photos side by side for gels representative of all trials for these overlay assays. […] Thus, Applicants took the results of these two tests as confirming that AIF binds to PAR in vitro.
To further study these potential AIF PBMs, Applicants performed the following experiment to examine the effect of mutating AIFm amino acids 222-244, 441-463, and/or 567-592 to poly-alanine on the ability of AIF to bind PAR. FIG. 6 comprises black and white photographs of representative gels from an overlay assay of His-tagged WT-AIF, AIFm222-244, AIFm441-463, AIFm567-592, AIFΔ567-592 (i.e., a mutant lacking AAs 567-592), and AIF(K254A, R264A) (i.e., mutating K to A at 254 and R to A at 264) mutants with ^32P-labeled automodified PARP-1 (equivalent to 100 nM of PAR), purified ^32P-labeled PAR (100 nM), or purified ^32P-labeled PAR with either a 100-fold excess of DNA or cold PAR. […] The same can be assumed to corresponding sequences for other species, such as those identified in FIG. 4.
Additionally, to exclude the possibility that PAR polymer is binding to AIF through its DNA-binding domain, PAR polymer binding was assessed against the full length AIF DNA-binding mutant AIFK254A;R264A as described by H Cande et al. (Nat Struct Biol, 2002).
Finally, Human AIF (“AIFH”) is known to bind to DNA through a groove between the FAD-binding domain (“D1”) and C-terminal domain (“D3”). A mutant form of AIFH in which lysine 255 is substituted with alanine and arginine 265 is substituted with alanine (AIFK255A;R265A) completely lacks DNA binding. To investigate the possible contribution of the AIF DNA-binding domain to PAR binding, Applicants assessed PAR binding to AIFm mutated in the same way (AIFK254A;R264A). […] Thus, Applicants concluded that the AIF PAR-binding site is separable from its DNA-binding site, meaning that such binding could be inhibited by genetically modifying AIF without impacting the natural DNA binding capabilities of AIF or potentially by otherwise inhibiting the binding action of the PBMs.

Tom20 in the supernatant (mitochondrial integrity) (isolated mitochondria; any concentration of PAR used): could not be detected in the supernatant
Molecule: Poly(ADP-ribose) [PAR, reference compound]
release of endogenous cytochrome c from mitochondria (isolated mitochondria; 5 nM and 50 nM PAR): failed to induce the release of endogenous cytochrome c | release of endogenous cytochrome c from mitochondria (isolated mitochondria; 100 nM PAR): a weak cytochrome c signal could be detected

Bmax (PAR [1]): 3.97 pmol | Kd (PAR [1]): 3.3 µM | binding to 32P-labeled automodified PARP-1 or 32P-labeled purified PAR (PAR [2]): bound PAR
Molecule: amino acids 567-592 of AIF-Dm, SEQ. ID NO. 16 LRDKVVVGIVLWNVFNRMPIAAAIIK (mouse) [Dm peptide]

Bmax (PAR [1]): 1.77 pmol | Kd (PAR [1]): 107 µM | PAR binding in saturation binding experiments (PAR [1]; result in words): clearly reduced PAR binding | binding to 32P-labeled automodified PARP-1 or 32P-labeled purified PAR (PAR [2]): failed to bind
Molecule: amino acids 567-592 of AIF-Tm, SEQ. ID NO. 17 LRDKVVVGIVLWNVFNRMPIAAAIIA (mouse) [Tm peptide]

binding to PAR (PAR [2]): bound less well
Molecule: peptide composed of AIFm amino acids 222-244: peptide of mouse AIF amino acids 222-244, SEQ. ID NO. 1 (GGVAVLTGKKVVHLDVRGNMVKL; mouse)

binding to PAR (PAR [2]): failed to bind PAR appreciably
Molecule: peptide composed of AIFm amino acids 441-463: peptide of mouse AIF amino acids 441-463, SEQ. ID NO. 5 (FYDIKLGRRRVEHHDHAVVSGRL; mouse)

Bmax (PAR [1]): 4.57 pmol | Bmax (PAR [1]; listed as AIFm567-592 peptide): 4.55 pmol
Molecule: peptide of amino acids 567-592 of mouse AIF, SEQ. ID NO. 10 LRDKVVVGIVLWNVFNRMPIARKIIK (mouse) [WT peptide]

effect of hundred fold excess of salmon sperm DNA on PAR binding (PAR [3]): fails to disrupt | effect of salmon sperm DNA on PAR binding (PAR [3]): failed to disrupt PAR binding
B1: AIFm441-463: His-tagged mouse AIF with amino acids 441 to 463 mutated to poly-alanine (protein)
chain: MFRCGGLAGAFKQKLVPLVRTVYVQRPKQRNRLPGNLFQQWRVPLELQMARQMASSGSSGGKMDNSVLVLIVGLSTIGAGAYAYKTIKEDQKRYNERVMGLGLSPEEKQRRAIASATEGGSVPQIRAPSHVPFLLIGGGTAAFAAARSIRARDPGARVLIVSEDPELPYMRPPLSKELWFSDDPNVTKTLQFRQWNGKERSIYFQPPSFYVSAQDLPNIENGGVAVLTGKKVVHLDVRGNMVKLNDGSQITFEKCLIATGGTPRSLSAIDRAGAEVKSRTTLFRKIGDFRALEKISREVKSITVIGGGFLGSELACALGRKSQASGIEVIQLFPEKGNMGKILPQYLSNWTMEKVKREGVKVMPNAIVQSVGVSGGRLLIKLKDGRKVETDHIVTAVGLEPNVELAKTGGLEIDSDFGGFRVNAELQARSNIWVAGDAACAAAAAAAAAAAAAAAAAAAAAAAAGENMTGAAKPYWHQSMFWSDLGPDVGYEAIGLVDSSLPTVGVFAKATAQDNPKSATEQSGTGIRSESETESEASEITIPPSAPAVPQVPVEGEDYGKGVIFYLRDKVVVGIVLWNVFNRMPIARKIIKDGEQHEDLNEVAKLFNIHED
modifications: left off: small tags and cut ends
notes: His-tagged mouse AIF with amino acids 441 to 463 mutated to poly-alanine
binding to 32P-labeled automodified PARP-1 or purified 32P-labeled PAR (PAR [3]): comparable binding to that of unmutated WT-AIFm

reduced PAR binding (PAR [3]; radioactive signal normalized to WT-AIF): 90%
B2: AIF-Qm: full length mouse AIF, arginine 588, lysine 589, lysine 592 and arginine 583 substituted with alanines (protein, UniProt Q9Z0X1 1-612, looked up, variant R583A R588A K589A K592A)
chain: MFRCGGLAGAFKQKLVPLVRTVYVQRPKQRNRLPGNLFQQWRVPLELQMARQMASSGSSGGKMDNSVLVLIVGLSTIGAGAYAYKTIKEDQKRYNERVMGLGLSPEEKQRRAIASATEGGSVPQIRAPSHVPFLLIGGGTAAFAAARSIRARDPGARVLIVSEDPELPYMRPPLSKELWFSDDPNVTKTLQFRQWNGKERSIYFQPPSFYVSAQDLPNIENGGVAVLTGKKVVHLDVRGNMVKLNDGSQITFEKCLIATGGTPRSLSAIDRAGAEVKSRTTLFRKIGDFRALEKISREVKSITVIGGGFLGSELACALGRKSQASGIEVIQLFPEKGNMGKILPQYLSNWTMEKVKREGVKVMPNAIVQSVGVSGGRLLIKLKDGRKVETDHIVTAVGLEPNVELAKTGGLEIDSDFGGFRVNAELQARSNIWVAGDAACFYDIKLGRRRVEHHDHAVVSGRLAGENMTGAAKPYWHQSMFWSDLGPDVGYEAIGLVDSSLPTVGVFAKATAQDNPKSATEQSGTGIRSESETESEASEITIPPSAPAVPQVPVEGEDYGKGVIFYLRDKVVVGIVLWNVFNAMPIAAAIIADGEQHEDLNEVAKLFNIHED
modifications: full-length
notes: full length mouse AIF, arginine 588, lysine 589, lysine 592 and arginine 583 substituted with alanines

effect of hundred fold excess of salmon sperm DNA on PAR binding (PAR [3]): fails to disrupt | effect of salmon sperm DNA on PAR binding (PAR [3]): failed to disrupt PAR binding
B3: AIFK254A;R264A: full length mouse AIF DNA-binding mutant, K to A at 254 and R to A at 264 (protein)
chain: B2 chain with K254A, R264A, A583R, A588R, A589K, A592K
modifications: left off: small tags and cut ends
binding to 32P-labeled automodified PARP-1 or purified 32P-labeled PAR (PAR [3]): still substantially binds; also recorded: bound to ^32P-labeled automodified PARP-1 and purified ^32P-labeled PAR
